According to patent publication EP0659438A1, “Conjugates consisting of peptidic T cell antigens and cell binding groups, and their use for therapy” (BOEHRINGER MANNHEIM GMBH, priority 1993, dated 1995):

Tested on: T-cell clone SP2.2
Test: cells
Assay type: cell-based, human

Row | Compound | inhibition of conjugate induced proliferation | reduction of P2-induced proliferation [%] | inhibition at 300 µM (Homo sapiens, T-cell, read-out: inhibition of conjugate induced proliferation) [%] | effect on free peptide induced proliferation
1 | CCN(CC)CCCC(C)Nc1ccnc2cc(Cl)ccc12 (centres unmarked) [Chloroquine] | can inhibit | 50 | 100 | 
2 | CC(=O)N[C@@H](CC(C)C)C(=O)N[C@@H](CC(C)C)C(=O)N[C@H](C=O)CCCNC(=N)N [Leupeptin] | can inhibit |  |  | almost no effect
